For orientation: IC50 means the concentration at which inhibition is half-maximal.

The structures appear in SMILES notation. Counter-ions that a name gives are not always drawn. Some results are limits rather than exact numbers.

The record followed here is patent US20250326748A1, “COMPOUNDS AND METHODS FOR MODULATING SPLICING” (REMIX THERAPEUTICS INC., priority 2022, published 2025).

For one data set, the system named is K562 cells. The data set is described as follows: Cell viability, Cell Titer Glo 2.0 assay, K562. The note with it: 72 hours. On the technique in general: Cellular ATP, detected with luciferase, serves as a proxy for viable cell number.
Another data set deals with HiBiT-tagged MYB protein. The experiment in a line: HiBiT protein abundance assay, MYB (K562 HiBiT knock-in). The note with it: HiBiT knock-in cells, 24 hours. It counts as cell-based, human. In outline:
(§1)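 Endogenously HiBiT-tagged K562 knock-in lines treated 24 h at 37 °C with 10-point 3-fold dilutions (top 10 μM final, DMSO ≤0.25%) in IMDM+1% FBS. Lytic Nano-Glo luminescence normalized to DMSO and unmodified K562 controls; four-parameter fit gives 50%-abundance concentration (IC50).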
In general terms: The HiBiT peptide binds its large partner to form an active luciferase.

For the next data set, the system named is Target C. The data set is described as follows: HiBiT protein abundance assay, Target C (K562 HiBiT knock-in). It counts as cell-based, human. The settings on record: HiBiT knock-in cells, 24 hours. In a few lines:
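K562 HiBiT knock-in cells (10000/well) in IMDM + 1% FBS were treated for 24 h at 37° C. with a 10-point 3-fold dilution series (top 10 μM final), with DMSO ≤0.25%. Unmodified K562 served as baseline. HiBiT lytic luminescence was normalized to controls, and IC50 was interpolated at 50% from a four-parameter fit.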

The subject of another data set is HiBiT-tagged HTT protein. The experiment in a line: HiBiT protein abundance assay, HTT (K562 HiBiT knock-in). It counts as cell-based, human. The settings on record: HiBiT knock-in cells, 24 hours. In a few lines: as §1
A further data set relates to SMN2 mRNA. The experiment in a line: Splicing RT-qPCR panel, SMN2 canonical junction (CJ) mRNA. The class given is cell-based, human. The settings on record: Homo sapiens, read-out: SMN2 CJ (decrease in CJ mRNA levels, IC50). In a few lines: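 A673 cells (DMEM, 10% FBS) or K562 cells (IMDM, 10% FBS) treated 24 h at 37 °C with an 11-point 3-fold dilution, top 10 uM, DMSO ≤0.25%. Canonical-junction mRNA quantified in lysates by RT-qPCR, normalised to GAPDH, GUSB or PPIA and to DMSO (2^−ΔΔCt), then converted to % response.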
Background: In qPCR the cycle at which signal appears reflects the starting amount.

On to `Cc1c(O)c(-c2cc(Cl)c3cc(N4C[C@@H](C)N[C@@H](C)C4)cnc3n2)cc2cn(C)nc12` [Compound 149], for which, in the data set with K562 cells, the “Effect on Cell Viability, K562” value is on record as “B (100-1000 nM)”. In addition, the IC50 in the data set with HiBiT-tagged MYB protein is under 0.1 µM; with Target C, 0.1 to 1 µM; in the data set on HiBiT-tagged HTT protein, 0.1 to 1 µM; with SMN2 mRNA, under 0.1 µM.
On to `CNC(=O)c1cc(-c2cc3cn(C)nc3c(C)c2O)nc2ncc(N3CCNCC3)cc12` [Compound 150, 2-(6-hydroxy-2,7-dimethylindazol-5-yl)-N-methyl-6-(piperazin-1-yl)-1,8-naphthyridine-4-carboxamide], for which, in the data set with K562 cells, the “Effect on Cell Viability, K562” value is listed as “D (greater than 10 μM)”. Further, the half-maximal inhibitory concentration (IC50) in the data set with HiBiT-tagged MYB protein is over 10 µM; in the data set on Target C, over 10 µM; with HiBiT-tagged HTT protein it was over 10 µM; in the data set on SMN2 mRNA it was 1 to 10 µM.
With `Cc1cn2cc(-c3cc(Cl)c4cc(N5CCNCC5)cnc4n3)cc(F)c2n1` [Compound 153, 4-chloro-2-{8-fluoro-2-methylimidazo[1,2-a]pyridin-6-yl}-6-(piperazin-1-yl)-1,8-naphthyridine], the “Effect on Cell Viability, K562” value in the data set on K562 cells is “B (100-1000 nM)”. For the same compound, the IC50 in the data set with HiBiT-tagged MYB protein is 0.1 to 1 µM; in the data set with Target C, 1 to 10 µM; in the data set on HiBiT-tagged HTT protein, 0.1 to 1 µM; in the data set on SMN2 mRNA, under 0.1 µM.
For the compound `CN[C@H]1CCN(c2cnc3nc(-c4cc5cn(C)nc5c(F)c4O)cc(Cl)c3c2)C1` [Compound 272], the “Effect on Cell Viability, K562” value with K562 cells is reported as “A (<100 nM)”. Further, the IC50 in the data set with HiBiT-tagged MYB protein, in the data set with Target C, in the data set on HiBiT-tagged HTT protein and with SMN2 mRNA was under 0.1 µM each time.
As to `Cn1cc2cc(-c3cc(Cl)c4cc(N5CCNC6(CC6)C5)cnc4n3)c(O)c(F)c2n1` [Compound 274], in the data set on K562 cells, the “Effect on Cell Viability, K562” value is on record as “B (100-1000 nM)”. The IC50 in the data set on HiBiT-tagged MYB protein was under 0.1 µM; with Target C, 0.1 to 1 µM; with HiBiT-tagged HTT protein, 0.1 to 1 µM; in the data set on SMN2 mRNA, under 0.1 µM.
As for `CN(c1cnc2nc(-c3cc4cn(C)nc4c(F)c3O)cc(Cl)c2c1)[C@H]1CCNC1` [Compound 275], the “Effect on Cell Viability, K562” value in the data set with K562 cells is given as “A (<100 nM)”. The IC50 in the data set with HiBiT-tagged MYB protein is under 0.1 µM; in the data set on Target C, 1 to 10 µM; in the data set on HiBiT-tagged HTT protein, 0.1 to 1 µM; in the data set with SMN2 mRNA it was under 0.1 µM.
Turning to `CN(c1cnc2nc(-c3cc4cn(C)nc4c(F)c3O)cc(Cl)c2c1)[C@@H]1CCNC1` [Compound 276], in the data set on K562 cells, the “Effect on Cell Viability, K562” value is given as “A (<100 nM)”. The IC50 with HiBiT-tagged MYB protein was under 0.1 µM; in the data set with Target C, 0.1 to 1 µM; with HiBiT-tagged HTT protein it was 0.1 to 1 µM; in the data set on SMN2 mRNA it was under 0.1 µM.
For `Cc1c(O)c(-c2ccc3c(Cl)c(N4CCNCC4)cnc3n2)cc2cn(C)nc12` [Compound 278, 5-[5-chloro-6-(piperazin-1-yl)-1,8-naphthyridin-2-yl]-2,7-dimethylindazol-6-ol], the “Effect on Cell Viability, K562” value with K562 cells is on record as “A (<100 nM)”. For the same compound, the IC50 was under 0.1 µM with HiBiT-tagged MYB protein, 1 to 10 µM with Target C, 0.1 to 1 µM in the data set with HiBiT-tagged HTT protein and under 0.1 µM in the data set with SMN2 mRNA.
For `C[C@@H]1CN(c2cnc3nc(-c4cc5cn(C)nc5c(F)c4O)cc(Cl)c3c2)C[C@H](C)N1` [Compound 279], in the data set with K562 cells, the “Effect on Cell Viability, K562” value is “A (<100 nM)”. Also, the IC50 in the data set on HiBiT-tagged MYB protein was under 0.1 µM; in the data set on Target C it was 0.1 to 1 µM; in the data set with HiBiT-tagged HTT protein it was 0.1 to 1 µM; with SMN2 mRNA it was under 0.1 µM.
For the compound `C[C@H]1CN(c2cnc3nc(-c4cc5cn(C)nc5c(F)c4O)cc(Cl)c3c2)C[C@H](C)N1` [Compound 280], the “Effect on Cell Viability, K562” value in the data set with K562 cells was “A (<100 nM)”. Also, the IC50 in the data set with HiBiT-tagged MYB protein, in the data set with Target C, in the data set on HiBiT-tagged HTT protein and in the data set with SMN2 mRNA was under 0.1 µM throughout.
For `C[C@@H]1CN(c2cnc3nc(-c4cc5cn(C)nc5c(F)c4O)cc(Cl)c3c2)C[C@@H](C)N1` [Compound 281], in the data set on K562 cells, the “Effect on Cell Viability, K562” value is “A (<100 nM)”. Also, the IC50 with HiBiT-tagged MYB protein is under 0.1 µM; with Target C it was 0.1 to 1 µM; in the data set on HiBiT-tagged HTT protein it was under 0.1 µM; in the data set with SMN2 mRNA, under 0.1 µM.
With `Cn1cc2cc(-c3ccc4cc(NC5CCNCC5)cnc4n3)c(O)c(F)c2n1` [Compound 285], the “Effect on Cell Viability, K562” value with K562 cells is given as “B (100-1000 nM)”. Moreover, the IC50 in the data set on HiBiT-tagged MYB protein was 0.1 to 1 µM; with Target C it was 1 to 10 µM; in the data set on HiBiT-tagged HTT protein, 0.1 to 1 µM; in the data set with SMN2 mRNA, under 0.1 µM.
As for `CN[C@@H]1CCN(c2cnc3nc(-c4cc5cn(C)nc5c(C)c4O)cc(Cl)c3c2)C1` [Compound 286, 5-{4-chloro-6-[(3R)-3-(methylamino)pyrrolidin-1-yl]-1,8-naphthyridin-2-yl}-2,7-dimethylindazol-6-ol hydrochloride], the “Effect on Cell Viability, K562” value with K562 cells was “A (<100 nM)”. In addition, the IC50 in the data set with HiBiT-tagged MYB protein, in the data set with Target C, in the data set on HiBiT-tagged HTT protein and in the data set on SMN2 mRNA was under 0.1 µM each time.
For `CN[C@H]1CCN(c2cnc3nc(-c4cc5cn(C)nc5c(C)c4O)cc(Cl)c3c2)C1.Cl` [Compound 287], in the data set with K562 cells, the “Effect on Cell Viability, K562” value is recorded as “A (<100 nM)”. Moreover, the IC50 with HiBiT-tagged MYB protein was under 0.1 µM; in the data set on Target C, 0.1 to 1 µM; with HiBiT-tagged HTT protein, under 0.1 µM; in the data set with SMN2 mRNA, under 0.1 µM.
Consider `C[C@H]1CN(c2cnc3nc(-c4cc(F)c5nn(C)cc5c4)cc(Cl)c3c2)C[C@@H](C2CC2)N1` [Compound 288], for which the “Effect on Cell Viability, K562” value in the data set on K562 cells was “B (100-1000 nM)”. Also, the IC50 is 0.1 to 1 µM in the data set on HiBiT-tagged MYB protein, 1 to 10 µM with Target C, 1 to 10 µM in the data set on HiBiT-tagged HTT protein and under 0.1 µM in the data set on SMN2 mRNA.
`Cc1c(O)c(-c2cc(Cl)c3cc(N(C)[C@@H]4CCNC4)cnc3n2)cc2cn(C)nc12.Cl` [Compound 293]: the “Effect on Cell Viability, K562” value in the data set with K562 cells is on record as “B (100-1000 nM)”. The IC50 in the data set with HiBiT-tagged MYB protein is 0.1 to 1 µM; in the data set on Target C, 1 to 10 µM; in the data set on HiBiT-tagged HTT protein, 0.1 to 1 µM; with SMN2 mRNA, under 0.1 µM.
On to `Cc1c(O)c(-c2cc(Cl)c3cc(N(C)[C@H]4CCNC4)cnc3n2)cc2cn(C)nc12` [Compound 294], for which, in the data set with K562 cells, the “Effect on Cell Viability, K562” value was “B (100-1000 nM)”. The IC50 is 0.1 to 1 µM in the data set on HiBiT-tagged MYB protein, 1 to 10 µM in the data set with Target C, 0.1 to 1 µM in the data set with HiBiT-tagged HTT protein and under 0.1 µM with SMN2 mRNA.
For the compound `C[C@@H]1CN(c2cnc3nc(-c4cc(F)c5nn(C)cc5c4)cc(Cl)c3c2)CCN1` [Compound 295, 4-chloro-2-(7-fluoro-2-methylindazol-5-yl)-6-[(3R)-3-methylpiperazin-1-yl]-1,8-naphthyridine], in the data set on K562 cells, the “Effect on Cell Viability, K562” value was “B (100-1000 nM)”. The IC50 with HiBiT-tagged MYB protein is 0.1 to 1 µM; with Target C, 0.1 to 1 µM; in the data set with HiBiT-tagged HTT protein, 0.1 to 1 µM; in the data set with SMN2 mRNA, under 0.1 µM.
Take `C[C@H]1CN(c2cnc3nc(-c4cc(F)c5nn(C)cc5c4)cc(Cl)c3c2)CCN1` [Compound 296]: in the data set on K562 cells, the “Effect on Cell Viability, K562” value is given as “A (<100 nM)”. Further, the IC50 with HiBiT-tagged MYB protein was under 0.1 µM; in the data set with Target C it was 0.1 to 1 µM; in the data set with HiBiT-tagged HTT protein, 0.1 to 1 µM; in the data set with SMN2 mRNA, under 0.1 µM.
Regarding `Cc1cn2cc(-c3cc(Cl)c4cc(N5C[C@@H](C)N[C@@H](C)C5)cnc4n3)cc(F)c2n1` [Compound 297], the “Effect on Cell Viability, K562” value with K562 cells was “B (100-1000 nM)”. The IC50 in the data set with HiBiT-tagged MYB protein was 0.1 to 1 µM; with Target C, 1 to 10 µM; in the data set on HiBiT-tagged HTT protein it was 0.1 to 1 µM; in the data set on SMN2 mRNA, under 0.1 µM.
